These are literature values, as cited in patent US20100173012A1 (priority 2008, published 2010).

This series has as its system Fusarium graminearum. The conditions noted are these: previous work of the inventors.
Take `O=C(O)CN(CC(=O)O)c1ccccc1OCCOc1ccccc1N(CC(=O)O)CC(=O)O` [BAPTA]: the “use to reduce ascospore discharge in F. graminearum” value (“use to reduce ascospore discharge” for short) is listed as “successfully used”.

In the case of `CCN(CC)CCCCCCCCOC(=O)c1cc(OC)c(OC)c(OC)c1` [TMB8], the “use to reduce ascospore discharge” value is “successfully used”. As to `Cc1ccc(S(=O)(=O)NC(=O)NN2CCCCCC2)cc1` [Tolazamide], the “use to reduce ascospore discharge” value is “successfully used”.

Consider `COc1ccc(Cl)cc1C(=O)NCCc1ccc(S(=O)(=O)NC(=O)NC2CCCCC2)cc1` [glyburide], for which the “use to reduce ascospore discharge” value is on record as “successfully used”. As to `OCC(O)CO` [glycerol], the “use to reduce ascospore discharge” value is “successfully used”. On to `OC[C@@H](O)[C@@H](O)[C@H](O)[C@H](O)CO` [mannitol], for which the “use to reduce ascospore discharge” value is reported as “successfully used”. As for `COc1ccc(CCN(C)CCCC(C#N)(c2ccc(OC)c(OC)c2)C(C)C)cc1OC` (stereo not shown) [verapamil], the “use to reduce ascospore discharge” value is given as “successfully used”.
